The results in this text go back to patent US20240148821A1, “PHARMACEUTICAL USE OF CYCLIC PEPTIDE COMPOUND” (CHUGAI SEIYAKU KABUSHIKI KAISHA, priority 2021, published 2024).

Structures are written as SMILES. Numbered stars: 1 amine (or outer) side, 2 acyl side, 3 side chain; on linkers, the order of the positions; unused ones are H or OH. Bridge positions count the residues as written; N and C are the ends. Square brackets hold non-standard residues; d marks the D form. Peptide text beside a SMILES is read from it. * marks the point of attachment. hPhe(3-Cl-4-CF3) = N[C@@H](CCc1ccc(C(F)(F)F)c(Cl)c1)C(=O)O; NMePhe(4-CF3) = CN[C@@H](Cc1ccc(C(F)(F)F)cc1)C(=O)O; NMePhe(4-Me) = CN[C@@H](Cc1ccc(C)cc1)C(=O)O; NMePhe(4-F) = CN[C@@H](Cc1ccc(F)cc1)C(=O)O; NMedβ3hAla = C[C@H](CC(=O)[*:2])N(C)[*:1]; NMeGly(cPent) = CN[C@H](C(=O)O)C1CCCC1; Phe(2-OMe) = COc1ccccc1C[C@H](N)C(=O)O; Phe(3-I) = N[C@@H](Cc1cccc(I)c1)C(=O)O; Pro(4,4-F2) = O=C(O)[C@@H]1CC(F)(F)CN1; NMeGly(cBu) = CN[C@H](C(=O)O)C1CCC1; NMeCha = CN[C@@H](CC1CCCCC1)C(=O)O; Pro(4-oxo) = O=C1CN[C@H](C(=O)O)C1; NMeCba = CN[C@@H](CC1CCC1)C(=O)O; NMeChg = CN[C@H](C(=O)O)C1CCCCC1; Gly(cPr) = N[C@H](C(=O)O)C1CC1; NMeD = CN[C@@H](CC(=O)O)C(=O)O; NMeL = CN[C@@H](CC(C)C)C(=O)O; NMeV = CN[C@H](C(=O)O)C(C)C; d(β3hA) = C[C@@H](N)CC(=O)O; NMeA = CN[C@@H](C)C(=O)O; NMeAib = CNC(C)(C)C(=O)O; Piperidide = C1CCN(*)CC1; Pyrrolidide = C1CCN(*)C1; Ac5c = NC1(C(=O)O)CCCC1; Aze = O=C(O)[C@@H]1CCN1; Sar = CNCC(=O)O

The test system of the experiment is Human pancreatic cancer cell line AsPC-1 (G12D mutation Kras). The experiment in a line: AsPC-1 cell growth inhibition (AsPC-1 CGI). The format is cell-based. The following applies: read-out: AsPC-1 cell growth inhibition, 50% growth inhibitory concentration (IC50 value); 96 hours, CellTiter-Glo, values classified in ranges.
Procedure: Test compounds were serially dilated with dimethyl sulfoxide, and 200 nL was then dispensed to a U-bottom 96-well plate using Labcyte Echo. […] The cell suspension was dispensed to a. plate containing a test compound at 100 μL per well and incubated at 37° C. in a 5% carbon dioxide gas incubator. 96 hours later, 80 μL of CellTiter-Glo (Promega) was added to each well and fluorescence was measured.
Turning to `CC[C@H](C)[C@@H]1NC(=O)[C@H](CC(C)C)N(C)C(=O)C[C@@H](C(=O)N2CCCCC2)N(C)C(=O)[C@H](CC(C)C)NC(=O)C(C)(C)N(C)C(=O)[C@H](Cc2ccccc2OC)NC(=O)[C@H](Cc2cccc(I)c2)NC(=O)CN(C)C(=O)[C@H](Cc2ccc(C)cc2)N(C)C(=O)CN(C)C(=O)CN(C)C1=O` [Compound 1100] ([NMeL]I[Sar][Sar][NMePhe(4-Me)][Sar][Phe(3-I)][Phe(2-OMe)][NMeAib]L[NMeD]-Piperidide; lactam N-11), the IC50 is over 500 nM. The figure for `CC[C@H](C)[C@@H]1NC(=O)[C@H](CC(C)C)N(C)C(=O)C[C@@H](C(=O)N2CCCCC2)N(C)C(=O)[C@H](C(C)C)N(C)C(=O)C2(CCCC2)NC(=O)[C@@H]2CC(=O)CN2C(=O)[C@H](CCc2ccc(C(F)(F)F)c(Cl)c2)NC(=O)CN(C)C(=O)[C@H](CC2CCCCC2)N(C)C(=O)[C@@H]2CCN2C(=O)[C@H](C)N(C)C1=O` [Compound 1819] ([NMeL]I[NMeA][Aze][NMeCha][Sar][hPhe(3-Cl-4-CF3)][Pro(4-oxo)][Ac5c][NMeV][NMeD]-Piperidide; lactam N-11) is over 500 nM; for `CC[C@H](C)[C@@H]1NC(=O)[C@H](C2CCC2)N(C)C(=O)C[C@@H](C(=O)N2CCCC2)N(C)C(=O)[C@H](C2CCCCC2)N(C)C(=O)C2(CCCC2)NC(=O)[C@@H]2CC(F)(F)CN2C(=O)[C@H](CCc2ccc(C(F)(F)F)c(Cl)c2)NC(=O)CN(C)C(=O)[C@H](CC2CCCCC2)N(C)C(=O)CN(C)C(=O)CN(C)C1=O` [Compound 1363] ([NMeGly(cBu)]I[Sar][Sar][NMeCha][Sar][hPhe(3-Cl-4-CF3)][Pro(4,4-F2)][Ac5c][NMeChg][NMeD]-Pyrrolidide; lactam N-11) it is at most 20 nM; for `CC[C@H](C)[C@@H]1NC(=O)[C@H](C)N(C)C(=O)C[C@@H](C)NC(=O)[C@H](C2CCCC2)N(C)C(=O)C2(CCCC2)NC(=O)[C@@H]2CCCN2C(=O)[C@H](CCc2ccc(C(F)(F)F)c(Cl)c2)NC(=O)CN(C)C(=O)[C@H](CC2CCCCC2)N(C)C(=O)CN(C)C(=O)CN(C)C1=O` [Compound 1478] (cyclo([Ac5c][NMeGly(cPent)][d(β3hA)][NMeA]I[Sar][Sar][NMeCha][Sar][hPhe(3-Cl-4-CF3)]P)) it is over 500 nM.

With `CC[C@H](C)[C@@H]1NC(=O)[C@H](C)N(C)C(=O)C[C@@H](C(=O)N2CCCCC2)N(C)C(=O)[C@H](C(C)C)N(C)C(=O)C2(CCCC2)NC(=O)[C@@H]2CCCN2C(=O)[C@H](CCc2ccc(C(F)(F)F)c(Cl)c2)NC(=O)CN(C)C(=O)[C@H](Cc2ccc(F)cc2)N(C)C(=O)[C@@H]2CCCN2C(=O)CN(C)C1=O` [Compound 1698] ([NMeA]I[Sar]P[NMePhe(4-F)][Sar][hPhe(3-Cl-4-CF3)]P[Ac5c][NMeV][NMeD]-Piperidide; lactam N-11), the IC50 was over 500 nM.

Take `CC[C@H](C)[C@@H]1NC(=O)[C@H](CC(C)C)N(C)C(=O)C[C@@H](C)NC(=O)[C@H](CC2CCC2)N(C)C(=O)C2(CCCC2)NC(=O)[C@@H]2CCCN2C(=O)[C@H](CCc2ccc(C(F)(F)F)c(Cl)c2)NC(=O)CN(C)C(=O)[C@H](CC2CCCCC2)N(C)C(=O)CN(C)C(=O)CN(C)C1=O` [Compound 59] (cyclo([Ac5c][NMeCba][d(β3hA)][NMeL]I[Sar][Sar][NMeCha][Sar][hPhe(3-Cl-4-CF3)]P)): the IC50 is over 500 nM.

With `CC[C@H](C)[C@@H]1NC(=O)[C@H](C)N(C)C(=O)C[C@@H](C)NC(=O)[C@H](C(C)C)N(C)C(=O)C2(CCCC2)NC(=O)[C@@H]2CCCN2C(=O)[C@H](CCc2ccc(C(F)(F)F)c(Cl)c2)NC(=O)[C@H]2CCCN2C(=O)[C@H](CC2CCCCC2)N(C)C(=O)[C@@H]2CCCN2C(=O)CN(C)C1=O` [Compound 666] (cyclo([Ac5c][NMeV][d(β3hA)][NMeA]I[Sar]P[NMeCha][dP][hPhe(3-Cl-4-CF3)]P)), the IC50 was over 500 nM. The figure for `CC[C@H](C)[C@@H]1NC(=O)[C@H](CC(C)C)N(C)C(=O)C[C@@H](C)N(C)C(=O)[C@H](CC(C)C)NC(=O)C(C)(C)N(C)C(=O)[C@H](CC(C)C)NC(=O)[C@H](CCc2ccc(C(F)(F)F)c(Cl)c2)NC(=O)CN(C)C(=O)[C@H](Cc2ccc(C(F)(F)F)cc2)N(C)C(=O)[C@@H]2CCN2C(=O)CN(C)C1=O` [Compound 1403] (cyclo([Aze][NMePhe(4-CF3)][Sar][hPhe(3-Cl-4-CF3)]L[NMeAib]L[NMedβ3hAla][NMeL]I[Sar])) is over 500 nM. The figure for `CC(C)C[C@H]1C(=O)N[C@@H](C2CC2)C(=O)N(C)CC(=O)N(C)CC(=O)N(C)[C@@H](CC2CCCCC2)C(=O)N(C)CC(=O)N[C@@H](CCc2ccc(C(F)(F)F)c(Cl)c2)C(=O)N2CCC[C@H]2C(=O)NC2(CCCC2)C(=O)N(C)[C@@H](C(C)C)C(=O)N(C)[C@H](C(=O)N2CCCCC2)CC(=O)N1C` [Compound 533] ([NMeL][Gly(cPr)][Sar][Sar][NMeCha][Sar][hPhe(3-Cl-4-CF3)]P[Ac5c][NMeV][NMeD]-Piperidide; lactam N-11) is over 500 nM.
